Measurements: patent US20060063784A1, “Method of using substituted pyrazolo [1,5-a] pyrimidines” (priority 2004, published 2006)
Like-named read-outs stand apart in the source and are kept apart here.

Experiments:
[1] = system: 80S14 (p21-deficient) cells; experiment: Cytotoxicity assay using isogenic cell lines: IC50 in 80S14 (p21-deficient) cells, SRB; assay type: cell-based, human
In short: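 80S14 (p21-deficient) cells seeded at 12,000 cells/well overnight, then exposed 5 days at 37 °C to serial dilutions (5 pM–50 μM or 170 pg/ml–10 μg/ml). TCA-fixed, sulforhodamine B-stained, absorbance at 560 nm; IC50 taken from cytotoxicity curves versus untreated controls.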

LoVo Colon cell line = experiment: Cytotoxicity assay using LoVo colon cell line, SRB; assay type: cell-based; settings: read-out: Inhibition of LoVo
Description: Cytotoxicity Assay Using LoVo Colon Cell Line: • 1. LoVo Colon cell lines were cultured in RPMI 1640 medium (Gibco/Invitrogen Life Sciences) supplemented with 10% fetal bovine serum (FBS, Gibco) and 50 μg/ml entamicin (Gibco). Cells were maintained at 37° C. under 7% CO2. • 2. Cells were seeded in 96-well microtiter plates (Corning/Costar) in a volume of 0.15 ml of growth medium (4000 cells/well). Plates were incubated at 37° C. overnight (18-24 hours). • 3. Serial dilutions of the test agent were added to each well. Dilutions were prepared in growth medium. One of two dose ranges was used: 5 pM to 20 μM or 170 pg/ml to 10 μg/ml. Cells were incubated with the test compounds for 4 days at 37° C. • 4. Surviving cells were processed using the SRB asay, as described above.
5. The drug concentration that inhibits cell proliferation by 50% relative to untreated controls (IC50) was determined from cytotoxicity curves using the LSW Toolbox graphing application.

[2] = Homo sapiens, 120 h, 80S14 p21-deficient cells, 5 days incubation, SRB, read-out: IC50 for 80SI4
[3] = Homo sapiens, 96 h, LoVo colon cells, 4 days incubation, SRB
[4] = Homo sapiens, 80S14, 120 h, read-out: IC50 for 80SI4 (uM)
[5] = Homo sapiens, 120 h, 80S14 (p21-deficient) cells, 5 days, SRB, class symbols, read-out: IC50 for 80S14
[6] = 80S14 (p21-deficient) cells, 5 days, SRB, class symbols, read-out: IC50 for 80S14

How did the IC50 [1, 2] turn out when `O=C(NCCc1ccccc1)Nc1cccc(-c2ccnc3c(C(=O)c4cccs4)cnn23)c1` [Example 2, N-(2-phenylethyl)-N′-{3-[3-(thien-2-ylcarbonyl)pyrazolo[1,5-a]pyrimidin-7-yl]phenyl}urea] was run?
Its IC50 is 1 to 10 µM.

And the IC50 (LoVo Colon cell line; [3])?
The IC50 was 0.1 to 1 µM.

For `O=C(Nc1cccc(-c2ccnc3c(C(=O)c4cccs4)cnn23)c1)NC1CCCCC1` [Example 3, N-cyclohexyl-N′-{3-[3-(thien-2-ylcarbonyl)pyrazolo[1,5-a]pyrimidin-7-yl]phenyl}urea], which IC50 [1, 2] is on record?
The IC50 was less than 1 µM.

And the IC50 (LoVo Colon cell line; [3])?
The IC50 was less than 0.1 µM.

With `CCCCOC(=O)Nc1cccc(-c2ccnc3c(C(=O)c4cccs4)cnn23)c1` [Example 13, butyl 3-[3-(thien-2-ylcarbonyl)pyrazolo[1,5-a]pyrimidin-7-yl]phenylcarbamate] as the molecule, how does the IC50 [1, 4] read?
The IC50 was less than 1 µM.

What about the IC50 (LoVo Colon cell line; Homo sapiens, LoVo, 96 h) of the same molecule?
Its IC50 is less than 0.1 µM.

How did the IC50 [1, 4] turn out when `C=CCOC(=O)Nc1cccc(-c2ccnc3c(C(=O)c4cccs4)cnn23)c1` [Example 14, allyl 3-[3-(thien-2-ylcarbonyl)pyrazolo[1,5-a]pyrimidin-7-yl]phenylcarbamate] was run?
Its IC50 is less than 1 µM.

And the IC50 (LoVo Colon cell line; Homo sapiens, LoVo, 96 h)?
The IC50 was less than 0.1 µM.

Which results are given for `CC(C)(C)COC(=O)Nc1cccc(-c2ccnc3c(C(=O)c4cccs4)cnn23)c1` [Example 17, neopentyl 3-[3-(thien-2-ylcarbonyl)pyrazolo[1,5-a]pyrimidin-7-yl]phenylcarbamate]?
IC50 [1, 2]: < 1 µM; IC50 (LoVo Colon cell line; [3]): < 0.1 µM

How did the IC50 ([1]; 80S14 p21-deficient cells, 5 days incubation, SRB, read-out: IC50 for 80SI4) turn out when `O=C(Nc1cccc(-c2ccnc3c(C(=O)c4cccs4)cnn23)c1)OCCCl` [Example 22] was run?
The IC50 was less than 1 µM.

And the IC50 (LoVo Colon cell line; LoVo colon cells, 4 days incubation, SRB)?
The IC50 was less than 0.1 µM.

Which results are given for `CCOC(=O)Nc1cccc(-c2ccnc3c(C(=O)c4cccs4)cnn23)c1` [Example 25, ethyl 3-[3-(thien-2-ylcarbonyl)pyrazolo[1,5-a]pyrimidin-7-yl]phenylcarbamate]?
IC50 [1, 4]: < 1 µM; IC50 (LoVo Colon cell line; Homo sapiens, LoVo, 96 h): < 0.1 µM

How did the IC50 [1, 2] turn out when `O=C(Nc1cccc(-c2ccnc3c(C(=O)c4cccs4)cnn23)c1)OCCCCCl` [Example 26, 4-chlorobutyl 3-[3-(thien-2-ylcarbonyl)pyrazolo[1,5-a]pyrimidin-7-yl]phenylcarbamate] was run?
The IC50 was less than 1 µM.

What about the IC50 (LoVo Colon cell line; [3]) of the same molecule?
Its IC50 is less than 0.1 µM.

With `C=C(C)C(=O)Nc1cccc(-c2ccnc3c(C(=O)c4cccs4)cnn23)c1` [Example 44, 2-methyl-N-{3-[3-(thien-2-ylcarbonyl)pyrazolo[1,5-a]pyrimidin-7-yl]phenyl}acrylamide] as the molecule, how does the IC50 (LoVo Colon cell line; [3]) read?
The IC50 was less than 0.1 µM.

How did the IC50 [1, 2] turn out when `CN(C)C(=O)Nc1cccc(-c2ccnc3c(C(=O)c4cccs4)cnn23)c1` [Example 46, N,N-dimethyl-N′-{3-[3-(thien-2-ylcarbonyl)pyrazolo[1,5-a]pyrimidin-7-yl]phenyl}urea] was run?
The IC50 was 1 to 10 µM.

And the IC50 (LoVo Colon cell line; [3])?
Its IC50 is 1 to 2 µM.

Which results are given for `O=C(Nc1cccc(-c2ccnc3c(C(=O)c4cccs4)cnn23)c1)c1cccs1` [Example 51, N-{3-[3-(thien-2-ylcarbonyl)pyrazolo[1,5-a]pyrimidin-7-yl]phenyl}thiophene-2-carboxamide]?
IC50 [1, 2]: < 1 µM; IC50 (LoVo Colon cell line; [3]): < 0.1 µM

What does the source list for `CC12CCC(C(=O)Nc3cccc(-c4ccnc5c(C(=O)c6cccs6)cnn45)c3)(OC1=O)C2(C)C` (centres unmarked) [Example 54, 4,7,7-trimethyl-3-oxo-N-{3-[3-(thien-2-ylcarbonyl)pyrazolo[1,5-a]pyrimidin-7-yl]phenyl}-2-oxabicyclo[2.2.1]heptane-1-carboxamide]?
IC50 [1, 2]: < 1 µM; IC50 (LoVo Colon cell line; [3]): < 0.1 µM

For `CCCCC/C(=C\c1ccccc1)CNc1cccc(-c2ccnc3c(C(=O)c4cccs4)cnn23)c1` [Example 410, [7-(3-{[(2E)-2-Pentyl-3-phenylprop-2-enyl]amino}phenyl)pyrazolo[1,5-a]pyrimidin-3-yl](thien-2-yl)methanone], which IC50 [1, 5] is on record?
The IC50 was 10 to 50 µM.

How did the IC50 [1, 5] turn out when `O=C(c1cccs1)c1cnn2c(-c3cccc(NC/C=C/c4ccccc4)c3)ccnc12` [Example 412, [7-(3-{[(2E)-3-Phenylprop-2-enyl]amino}phenyl)pyrazolo[1,5-a]pyrimidin-3-yl] (thien-2-yl)methanone] was run?
The IC50 was 10 to 50 µM.

`C/C(=C\c1ccc(C(C)(C)C)cc1)CNc1cccc(-c2ccnc3c(C(=O)c4cccs4)cnn23)c1` [Example 413, [7-(3-{[(2E)-3-(4-tert-Butylphenyl)-2-methylprop-2-enyl]amino}phenyl)pyrazolo[1,5-a]pyrimidin-3-yl](thien-2-yl)methanone] was tested. Which IC50 [1, 5] did it give?
The IC50 was 10 to 50 µM.

For `O=C(Nc1cccc(-c2ccnc3c(C(=O)c4cccs4)cnn23)c1)c1cnc[nH]1` [Example 415, N-{3-[3-(Thien-2-ylcarbonyl)pyrazolo[1,5-a]pyrimidin-7-yl]phenyl}-1H-imidazole-5-carboxamide], which IC50 [1, 5] is on record?
The IC50 was less than 1 µM.

For `O=C(Nc1cccc(-c2ccnc3c(C(=O)c4cccs4)cnn23)c1)OCc1ccncc1` [Example 416, Pyridin-4-ylmethyl 3-[3-(thien-2-ylcarbonyl)pyrazolo[1,5-a]pyrimidin-7-yl]phenylcarbamate], which IC50 [1, 5] is on record?
The IC50 was less than 1 µM.

Which IC50 [1, 5] does the source give for `CCCC(C)CNc1cccc(-c2ccnc3c(C(=O)c4cccs4)cnn23)c1` (centres unmarked) [Example 418, (7-{3-[(2-Methylpentyl)amino]phenyl}pyrazolo[1,5-a]pyrimidin-3-yl)(thien-2-yl)methanone] here?
The IC50 was 1 to 10 µM.

For `CN(C)c1ccc(-c2ccnc3c(C(=O)c4cccs4)cnn23)cc1NC(=O)c1ccncc1` [Example 428, N-{2-(Dimethylamino)-5-[3-(thien-2-ylcarbonyl)pyrazolo[1,5-a]pyrimidin-7-yl]phenyl}isonicotinamide], which IC50 [1, 5] is on record?
The IC50 was 1 to 10 µM.

Which IC50 [1, 5] does the source give for `O=C(c1cccs1)c1cnn2c(-c3cccc(-c4ccc(CN5CCOCC5)cc4)c3)ccnc12` [Example 459, {7-[4′-(Morpholin-4-ylmethyl)-1,1′-biphenyl-3-yl]pyrazolo[1,5-a]pyrimidin-3-yl}(thien-2-yl)methanone] here?
The IC50 was less than 1 µM.

Which IC50 [1, 5] does the source give for `CN1CCN(Cc2ccc(-c3cccc(-c4ccnc5c(C(=O)c6cccs6)cnn45)c3)cc2)CC1` [Example 460, (7-{4′-[(4-Methylpiperazin-1-yl)methyl]-1,1′-biphenyl-3-yl}pyrazolo[1,5-a]pyrimidin-3-yl)(thien-2-yl)methanone] here?
The IC50 was less than 1 µM.

How did the IC50 [1, 5] turn out when `CC(C)CC(=O)Nc1cccc(-c2ccnc3c(-c4cccc(CN(C)C)c4)cnn23)c1` [Example 497, N-[3-(3-{3-[(Dimethylamino)methyl]phenyl}pyrazolo[1,5-a]pyrimidin-7-yl)phenyl]-3-methylbutanamide] was run?
The IC50 was 10 to 50 µM.

Which IC50 [1, 5] does the source give for `Cc1cc(C)cc(-c2cnn3c(-c4cccc(-c5nnn(CCN6CCCC6)n5)c4)ccnc23)c1` [Example 498, 3-(3,5-Dimethylphenyl)-7-{3-[2-(2-pyrrolidin-1-ylethyl)-2H-tetrazol-5-yl]phenyl}pyrazolo[1,5-a]pyrimidine] here?
The IC50 was 1 to 10 µM.

How did the IC50 [1, 5] turn out when `Cc1cc(C)cc(-c2cnn3c(-c4cccc(-c5nnn(CCN6CCCCC6)n5)c4)ccnc23)c1` [Example 499, 3-(3,5-Dimethylphenyl)-7-{3-[2-(2-piperidin-1-ylethyl)-2H-tetrazol-5-yl]phenyl}pyrazolo[1,5-a]pyrimidine] was run?
Its IC50 is 1 to 10 µM.

For “N,N′-diethyl-3-[3-(2-thienylcarbonyl)-pyrazolo[1,5-a]pyrimidin-7-yl]-benzamide [Example 248]”, which IC50 [1, 6] is on record?
The IC50 was 10 to 50 µM.

With “N-{3-[3-(2-Thienylcarbonyl)pyrazolo[1,5-a]pyrimidin-7-yl]phenyl}-3-trifluoromethyl)benzamide [Example 281]” as the molecule, how does the IC50 [1, 6] read?
The IC50 was less than 1 µM.

With “tert-Butyl 4-[({3-[3-[3-(thien-2-ylcarbonyl)pyrazolo[1,5-a]pryimidin-7-yl]phenyl}amino)carbonyl]piperidine-1-carboxylate [Example 405]” as the molecule, how does the IC50 [1, 6] read?
Its IC50 is 1 to 10 µM.
